Reference: ChEMBL document CHEMBL1201862, “PubChem BioAssay data set” (2004)
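How tested: cells in 96-well plates exposed to compound for 48 hours at five concentrations. GI50 marks 50% less growth.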 Calls of active or inactive are those of the source. Cut-off read from the data, not from the text of the source: active = GI50 up to about 1.1 µM and inactive = higher.

Legend:
Test in all cases: NCI tumour cell line growth inhibition, 48 h
Malme-3M = system: Malme-3M
A498 = system: A498
NCI-H522 = system: NCI-H522
MDA-MB-231 = system: MDA-MB-231
OVCAR-5 = system: OVCAR-5
SNB-75 = system: SNB-75
DU-145 = system: DU-145
SF-268 = system: SF-268
HCC 2998 = system: HCC 2998
SN12C = system: SN12C
COLO 205 = system: COLO 205
A549 = system: A549
MDA-N = system: MDA-N
LOX IMVI = system: LOX IMVI
SK-MEL-2 = system: SK-MEL-2
HOP-62 = system: HOP-62
SK-OV-3 = system: SK-OV-3
RPMI-8226 = system: RPMI-8226
OVCAR-4 = system: OVCAR-4
RXF 393 = system: RXF 393
NCI-H460 = system: NCI-H460
ACHN = system: ACHN
KM12 = system: KM12
MDA-MB-435 = system: MDA-MB-435
HL-60 = system: HL-60
HCT-15 = system: HCT-15
HOP-92 = system: HOP-92
SK-MEL-28 = system: SK-MEL-28
UACC-62 = system: UACC-62
CAKI-1 = system: CAKI-1
K562 = system: K562
NCI-H226 = system: NCI-H226
MOLT-4 = system: MOLT-4
HCT-116 = system: HCT-116
OVCAR-8 = system: OVCAR-8
IGROV-1 = system: IGROV-1
TK-10 = system: TK-10
SR = system: SR
SF-539 = system: SF-539
SK-MEL-5 = system: SK-MEL-5
NCI-H23 = system: NCI-H23
U-251 = system: U-251
T47D = system: T47D
HT-29 = system: HT-29
EKVX = system: EKVX
BT-549 = system: BT-549
NCI/ADR-RES = system: NCI/ADR-RES
SF-295 = system: SF-295
MCF7 = system: MCF7
786-0 = system: 786-0
M14 = system: M14
CCRF-CEM = system: CCRF-CEM
SW-620 = system: SW-620
OVCAR-3 = system: OVCAR-3
UACC-257 = system: UACC-257
UO-31 = system: UO-31
SNB-19 = system: SNB-19
PC-3 = system: PC-3
Hs-578T = system: Hs-578T

`O=C1/C(=C/c2ccccc2)CCc2ccc(Cl)nc21` was tested, and the GI50 (Malme-3M) was 11 µM (inactive), the GI50 (A498) was 18.3 µM (inactive) and the GI50 (NCI-H522) was 2.76 µM (inactive). The GI50 (MDA-MB-231) was 15.2 µM (inactive), the GI50 (OVCAR-5) was 17.3 µM (inactive) and the GI50 (SNB-75) was 17.2 µM (inactive). The GI50 (DU-145) was 10 µM (inactive), the GI50 (SF-268) was 12.1 µM (inactive) and the GI50 (HCC 2998) was 17 µM (inactive). For the same compound, the GI50 (SN12C) was 6.03 µM (inactive), the GI50 (COLO 205) was 19.7 µM (inactive) and the GI50 (A549) was 16.6 µM (inactive). For the same compound, the GI50 (MDA-N) was 4 µM (inactive), the GI50 (LOX IMVI) was 2.19 µM (inactive) and the GI50 (SK-MEL-2) was 16.7 µM (inactive). The GI50 (HOP-62) was 19.7 µM (inactive), the GI50 (SK-OV-3) was 31.6 µM (inactive) and the GI50 (RPMI-8226) was 2.84 µM (inactive). For the same compound, the GI50 (OVCAR-4) was 22.5 µM (inactive), the GI50 (RXF 393) was 8.2 µM (inactive) and the GI50 (NCI-H460) was 18.2 µM (inactive). For the same compound, the GI50 (ACHN) was 11.9 µM (inactive), the GI50 (KM12) was 2.59 µM (inactive) and the GI50 (MDA-MB-435) was 6.5 µM (inactive). The GI50 (HL-60) was 0.0168 µM (active), the GI50 (HCT-15) was 3.52 µM and the GI50 (HOP-92) was 15.8 µM (inactive). For the same compound, the GI50 (SK-MEL-28) was 14.7 µM (inactive), the GI50 (UACC-62) was 10.4 µM (inactive) and the GI50 (CAKI-1) was 3.77 µM (inactive). For the same compound, the GI50 (K562) was 2.17 µM (inactive), the GI50 (NCI-H226) was 20.6 µM (inactive) and the GI50 (MOLT-4) was 2.28 µM (inactive). For the same compound, the GI50 (HCT-116) was 2.55 µM (inactive), the GI50 (OVCAR-8) was 7.8 µM (inactive) and the GI50 (IGROV-1) was 4.5 µM (inactive). The GI50 (TK-10) was 13.9 µM (inactive), the GI50 (SR) was 2.8 µM (inactive) and the GI50 (SF-539) was 3.61 µM (inactive). For the same compound, the GI50 (SK-MEL-5) was 5.31 µM (inactive), the GI50 (NCI-H23) was 16.6 µM (inactive) and the GI50 (U-251) was 3.11 µM (inactive). The GI50 (T47D) was 4.85 µM (inactive), the GI50 (HT-29) was 1.92 µM (inactive) and the GI50 (EKVX) was 17.9 µM (inactive). For the same compound, the GI50 (BT-549) was 13.9 µM (inactive), the GI50 (NCI/ADR-RES) was 19.6 µM (inactive) and the GI50 (SF-295) was 17.2 µM (inactive). For the same compound, the GI50 (MCF7) was 1.79 µM (inactive), the GI50 (786-0) was 7.18 µM (inactive) and the GI50 (M14) was 8.04 µM (inactive). For the same compound, the GI50 (CCRF-CEM) was 1.43 µM (inactive), the GI50 (SW-620) was 3.98 µM (inactive) and the GI50 (OVCAR-3) was 21.8 µM (inactive). The GI50 (UACC-257) was 5.4 µM (inactive), the GI50 (UO-31) was 7.64 µM (inactive) and the GI50 (SNB-19) was 15 µM (inactive). For the same compound, the GI50 (PC-3) was 11.7 µM (inactive).

`COC(=O)C(Cc1c[nH]c2ccccc12)NC(=O)C(Cc1c[nH]cn1)NC(=O)C1CCC(=O)N1C(=O)OCc1ccccc1` (configuration not stated) was tested, and the GI50 (Malme-3M) was > 100 µM (inactive), the GI50 (A498) was 7.35 µM (inactive) and the GI50 (OVCAR-5) was > 100 µM (inactive). The GI50 (SNB-75) was > 100 µM (inactive), the GI50 (HCC 2998) was > 100 µM (inactive) and the GI50 (COLO 205) was > 100 µM (inactive). For the same compound, the GI50 (A549) was > 100 µM (inactive), the GI50 (MDA-N) was > 100 µM (inactive) and the GI50 (SK-MEL-2) was > 100 µM (inactive). The GI50 (HOP-62) was > 100 µM (inactive), the GI50 (RPMI-8226) was > 100 µM (inactive) and the GI50 (RXF 393) was > 100 µM (inactive). The GI50 (NCI-H460) was > 100 µM (inactive), the GI50 (ACHN) was > 100 µM (inactive) and the GI50 (KM12) was > 100 µM (inactive). For the same compound, the GI50 (HL-60) was > 100 µM (inactive), the GI50 (HOP-92) was > 100 µM (inactive) and the GI50 (SK-MEL-28) was > 100 µM (inactive). For the same compound, the GI50 (UACC-62) was > 100 µM (inactive), the GI50 (K562) was > 100 µM (inactive) and the GI50 (NCI-H226) was > 100 µM (inactive). The GI50 (MOLT-4) was > 100 µM (inactive), the GI50 (HCT-116) was > 100 µM (inactive) and the GI50 (OVCAR-8) was > 100 µM (inactive). The GI50 (IGROV-1) was > 100 µM (inactive), the GI50 (TK-10) was > 100 µM (inactive) and the GI50 (SR) was > 100 µM (inactive). For the same compound, the GI50 (SK-MEL-5) was > 100 µM (inactive), the GI50 (NCI-H23) was > 100 µM (inactive) and the GI50 (U-251) was > 100 µM (inactive). For the same compound, the GI50 (T47D) was 5.13 µM (inactive), the GI50 (HT-29) was > 100 µM (inactive) and the GI50 (EKVX) was > 100 µM (inactive). For the same compound, the GI50 (BT-549) was > 100 µM (inactive), the GI50 (MCF7) was > 100 µM (inactive) and the GI50 (786-0) was > 100 µM (inactive). For the same compound, the GI50 (M14) was > 100 µM (inactive), the GI50 (CCRF-CEM) was > 100 µM (inactive) and the GI50 (SW-620) was > 100 µM (inactive). The GI50 (UACC-257) was > 100 µM (inactive), the GI50 (UO-31) was > 100 µM (inactive) and the GI50 (SNB-19) was > 100 µM (inactive). For the same compound, the GI50 (PC-3) was > 100 µM (inactive) and the GI50 (Hs-578T) was > 100 µM (inactive).
